Tests used:
human MT2 receptor = biological target: T1, human MT2 receptor (Homo sapiens, UniProt P49286); experiment: 2-[125I]iodomelatonin competitive binding assay, MT2
T1 construct: expressed in transfected cells
T1 sequence (P49286 1-362): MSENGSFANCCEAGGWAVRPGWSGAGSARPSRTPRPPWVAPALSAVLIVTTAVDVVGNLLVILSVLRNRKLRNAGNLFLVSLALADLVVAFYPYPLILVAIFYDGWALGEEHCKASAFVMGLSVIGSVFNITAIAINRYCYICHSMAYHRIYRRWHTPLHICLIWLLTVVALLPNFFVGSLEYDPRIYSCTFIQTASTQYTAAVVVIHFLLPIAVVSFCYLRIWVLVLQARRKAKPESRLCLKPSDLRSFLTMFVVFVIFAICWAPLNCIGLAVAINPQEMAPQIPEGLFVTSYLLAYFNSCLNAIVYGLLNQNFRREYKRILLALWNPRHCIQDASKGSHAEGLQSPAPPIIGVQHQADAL

human MT1 [1] = biological target: T2, human MT1 (Homo sapiens, UniProt P48039); experiment: 2-[125I]iodomelatonin competitive binding assay, MT1; set-up: expressed in transfected cells
Target sequence in this assay (P48039 whole entry): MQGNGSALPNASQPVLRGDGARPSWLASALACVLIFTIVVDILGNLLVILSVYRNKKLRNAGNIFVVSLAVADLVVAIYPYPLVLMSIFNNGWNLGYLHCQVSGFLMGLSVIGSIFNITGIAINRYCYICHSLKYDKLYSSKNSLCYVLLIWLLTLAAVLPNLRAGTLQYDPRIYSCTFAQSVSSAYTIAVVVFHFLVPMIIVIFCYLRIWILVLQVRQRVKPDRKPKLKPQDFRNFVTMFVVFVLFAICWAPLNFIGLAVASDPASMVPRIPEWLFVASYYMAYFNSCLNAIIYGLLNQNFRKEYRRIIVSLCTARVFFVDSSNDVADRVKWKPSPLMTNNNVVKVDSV

[2] = system: HEK293 empty vector transfected cells (mock); experiment: Forskolin-stimulated cAMP production in mock-transfected HEK293 cells; type: cell-based, human; conditions: extracts […] (Ex18 0.005 mg/mL), melatonin 1 µM
[3] = system: HEK293 empty vector transfected cells (mock); experiment: ERK1/2 activation assay in mock HEK293 cells; type: cell-based, human; conditions: MLT 1 µM
[4] = system: HEK293 empty vector transfected cells (mock); experiment: β-arrestin2 recruitment assay (PathHunter), control cells with β-gal donor not fused to melatonin receptors; type: cell-based, human; conditions: extracts […], Ex18 0.005 mg/mL, MLT 1 µM
human MT1 [5] = biological target: T2, human MT1; experiment: Inhibition of forskolin-stimulated cAMP production, HEK293 cells expressing MT1; type: cell-based; set-up: expressed in transfected cells; conditions: single concentration: extracts […] (Ex18 0.005 mg/mL), melatonin 1 µM; normalized to mock cell responses
Target sequence in this assay (P48039 whole entry): as above

human MT1 [6] = biological target: T2, human MT1; experiment: β-arrestin2 recruitment assay (PathHunter), MT1; type: cell-based; set-up: host or cells: HEK 293 PathHunter parental cells, transient transfection of the receptor; conditions: single saturating concentration
Target sequence in this assay (P48039 whole entry): as above
Target sequence in this assay (P32121 whole entry partner): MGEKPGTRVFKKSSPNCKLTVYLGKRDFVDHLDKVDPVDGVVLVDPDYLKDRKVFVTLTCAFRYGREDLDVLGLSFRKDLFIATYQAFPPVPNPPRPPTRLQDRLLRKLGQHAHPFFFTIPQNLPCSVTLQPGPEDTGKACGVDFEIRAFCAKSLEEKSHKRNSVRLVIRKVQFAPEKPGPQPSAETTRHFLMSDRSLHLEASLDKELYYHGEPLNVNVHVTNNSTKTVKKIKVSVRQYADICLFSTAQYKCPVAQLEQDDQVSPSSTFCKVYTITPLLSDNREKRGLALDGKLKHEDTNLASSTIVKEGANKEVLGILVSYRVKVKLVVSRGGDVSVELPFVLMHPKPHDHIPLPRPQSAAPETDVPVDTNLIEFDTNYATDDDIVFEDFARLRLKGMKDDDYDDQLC

| Compound | 2-[125I]-MLT binding to MT2, result in words (human MT2 receptor) | 2-[125I]-MLT binding to MT1, result in words (human MT1 [1]) | effect on forskolin (FSK)-stimulated cAMP levels in mock cells [2] | effect on ERK1/2 pathway in mock cells, in words [3] | β-arrestin2 recruitment in control cells (β-gal donor alone) [4] | effect on FSK-stimulated cAMP production, cells expressing MT1 (human MT1 [5]) | β-arrestin2 recruitment, MT1-β-gal donor fusion protein (human MT1 [6]) |
| --- | --- | --- | --- | --- | --- | --- | --- |
| maltodextrin | no impact | no impact | – | – | – | – | – |
| COc1ccc2[nH]cc(CCNC(C)=O)c2c1 [Melatonin, N-acety-5-methoxyltryptamine] | – | – | did not show any effect | without effect | Neither melatonin nor any extract induced β-arrestin2 recruitment | decreased FSK-stimulated cAMP production | induced β-arrestin2 recruitment |

Reference: publication PMC10386454 (Pharmaceutics, 2023)
